# Measured values published in paper PMC8001704, “A Review of Red Yeast Rice, a Traditional Fermented Food in Japan and East Asia: Its Characteristic Ingredients and Application in the Maintenance and Improvement of Health in Lipid Metabolism and the Circulatory System” (Molecules, 2021).
# Like-named read-outs stand apart in the source and are kept apart here.
# Tests used:
# [1] = system: presynaptic GABA receptors; set-up: method as in PMID 10369462, PMID 11906718; settings: through reduction of adrenergic vasoconstriction; cited from earlier work
# [2] = set-up: method as in PMID 16256107, PMID 8930162; settings: cited from earlier work
# [3] = Pharmacokinetics of monacolin K in plasma after single oral administration of purified monacolin K or red yeast rice; assay type: in vivo, male SD rats; settings: for AUC(0-t) / Cmax: male, SD, rat, po
# Description: Recently, we compared the pharmacokinetics of monacolin K in blood after oral administration of purified monacolin K (lactone form, 99% purity) and red yeast rice produced by solid-state fermentation in male SD rats (7 weeks old). Most of the monacolin K in the plasma was detected in its acid form: both in the monacolin K-administered group and the red yeast rice -administered group. […] The medicinal benefit of red yeast rice is considered to be different to that of monacolin K alone. […] Since red yeast rice contains various ingredients, synergistic effects are expected.
# Figure 14 Plasma concentrations of lactone form and acid form of monacolin K after single administration of purified monacolin K or red yeast rice (40 mg/kg monacolin K or dose of red yeast rice equivalent to 40 mg/kg monacolin K) in male SD rats (7 weeks old). Each bar indicates the mean ± standard deviation, quantified according to the reference method.
# [4] = set-up: method as in PMID 27014344, doi:10.17546/msd.58298; settings: cited from earlier work
# [5] = system: Rabbits fed on a high-lipid diet; set-up: method as in PMID 1376794; settings: cited from earlier work
# [6] = system: Patients with hypercholesterolemia; set-up: method as in PMID 9456275; settings: cited from earlier work
# [7] = system: Human umbilical vein endothelial cells (HUVECs); set-up: method as in PMID 16141529; settings: cited from earlier work
# Hypertensive model mice = system: Hypertensive model mice; set-up: method as in PMID 10405198; settings: cited from earlier work
# experimental animals = system: experimental animals; set-up: method as in PMID 22929438; settings: Several studies using experimental animals; cited from earlier work
# Cardiac myocytes = system: Cardiac myocytes; set-up: method as in PMID 11444504; settings: cited from earlier work
# [8] = system: Squamous epithelial cancer cells; set-up: method as in PMID 20562912; settings: cited from earlier work
# [9] = system: Mesenchymal stem cells derived from rat bone marrow; set-up: method as in PMID 17497701; settings: cited from earlier work
# [10] = set-up: method as in PMID 23675421, PMID 7830729; settings: cited from earlier work
# cholesterol synthesis = settings: cited from earlier work
# [11] = set-up: method as in PMID 27422746; settings: cited from earlier work
# [12] = system: peroxisome proliferator-activated receptors (PPARs), e.g., PPARα; set-up: method as in PMID 24275089; settings: cited from earlier work
# [13] = plasma, single administration, 40 mg/kg monacolin K or equivalent, individual rats 101-103, 201-203, 40 mg/kg
compound,measurement,setting,value
"NCCCC(=O)O [GABA, γ-amino butyric acid]",effect on blood pressure,[1],hypotensive effect
same,increases in blood pressure,[2],suppresses
same,sodium excretion from the kidneys,[2],promotes
"CC[C@H](C)C(=O)O[C@H]1C[C@@H](C)C=C2C=C[C@H](C)[C@H](CC[C@@H]3C[C@@H](O)CC(=O)O3)[C@H]21 [Monacolin K, monacolin K]",form in which most of the monacolin K in the plasma was detected,"[3]; after oral administration, male SD rats",acid form
same,AUC(0-t),"[3]; plasma, 40 mg/kg, plasma, single administration, 40 mg/kg monacolin K or equivalent dose of red yeast rice, male SD rats, mean, read-out: AUC0–4h of monacolin K lactone, Mean",2.48 ng·h/mL
same,Cmax,"[3]; plasma, 40 mg/kg, plasma, single administration, 40 mg/kg monacolin K or equivalent dose of red yeast rice, male SD rats, mean, read-out: Cmax of monacolin K lactone, Mean",2.48 ng/mL
same,AUC(0-t),"[3]; plasma, 40 mg/kg, plasma, single administration, 40 mg/kg monacolin K or equivalent, individual rats 101-103, 201-203, read-out: AUC0–4h of monacolin K lactone, individual animals",3.11 ng·h/mL
same,Cmax,"[3]; plasma, 40 mg/kg, plasma, single administration, 40 mg/kg monacolin K or equivalent, individual rats 101-103, 201-203, read-out: Cmax of monacolin K lactone, individual animals",3.11 ng/mL
same,"AUC0–4h of monacolin K lactone, individual animals",[3]; [13],1.85 ng·h/mL
same,"Cmax of monacolin K lactone, individual animals",[3]; [13],1.85 ng/mL
same,plasma viscosity,[4],decrease plasma viscosity
same,"Effect of Monacolin K, atheroma formation",[5],Decrease in number of plaques in the aorta and lung artery
same,"Effect of Monacolin K, atheroma formation",[6],"Inhibition of platelet aggregation, macrophage foam cell formation and LDL oxidation"
same,"Effect of Monacolin K, atheroma formation",[7],Inhibition of NF-KB activation by CRP
same,"Effect of Monacolin K, blood circulation",Hypertensive model mice,Increase in renal blood flow
same,"Effect of Monacolin K, blood circulation",experimental animals,Increase in cerebral blood flow and cerebral vasomotor response
same,"Effect of Monacolin K, NOS signaling pathway",Cardiac myocytes,Increase of IL-1 induced production of nitrite (Increase in NOS expression and NO production mediated by Rho inhibition)
same,"Effect of Monacolin K, NOS signaling pathway",[8],Induction of expression of Rho family proteins
same,"Effect of Monacolin K, NOS signaling pathway",[9],Activation (phosphorylation) of AI3K/Akt pathway and MEK 1/2 pathway
same,oxidation of LDL,[10],inhibits
same,vascular endothelial function (vasoconstrictor reaction),[10]; in hyperlipidemia,improves
same,inhibition of cholesterol synthesis,cholesterol synthesis,potent inhibitor of cholesterol synthesis
C/C=C/C1=CC2=C(CO1)C(=O)[C@]1(C)OC(=O)[C@H](C(=O)CCCCCCC)[C@H]1C2 [ankaflavin],LDL-cholesterol oxidation,[11],suppressed
same,"action on PPARs, e.g., PPARα",[12],agonist
O=C1[C@H](CC[C@H](O)c2ccc(F)cc2)[C@@H](c2ccc(O)cc2)N1c1ccc(F)cc1 [ezetimibe],plasma viscosity,[4],decrease plasma viscosity
C/C=C/C1=CC2=C(CO1)C(=O)[C@]1(C)OC(=O)[C@H](C(=O)CCCCC)[C@H]1C2 [monascin],LDL-cholesterol oxidation,[11],suppressed
same,"action on PPARs, e.g., PPARα",[12],agonist
